Data reported in patent US20140066362A1, “METHOD FOR TREATING INFECTIONS BY TARGETING MICROBIAL H2S-PRODUCING ENZYMES” (NEW YORK UNIVERSITY, priority 2011, published 2014).

How the values were obtained:
Experiment in all cases: MIC of antibiotics with or without PAG/AOAA
Type in all cases: cell-based
E. faecium A2373 = conditions: for MIC: Enterococcus faecium, A2373, read-out: Minimum inhibitory concentration
Description: (§1) E. faecalis (ATCC 29212) cultures were prepared at initial inoculums of ˜5×10^5 CFU/ml in Mueller-Hinton II Broth (cation-adjusted). Aliquots of 190 μl were dispensed to each well of a fresh set of plates, and 10 μl of an antibiotic solution (levofloxacin, meropenem, gentamicin, piperacillin, linezolid, cefepime, daptomycin, vancomycin, or chloramphemicol) were transferred to the corresponding wells in each bacterial plate (FIG. 13). For each antibiotic, the starting concentration was 2×MIC (minimum inhibitory concentration) with serial ½ dilutions. Two sets of dilutions were prepared, and to one of them 0.1 mM AOAA was added. The resulting plates were kept at 37° C. and 85% humidity for 20 hours. All nine antibiotics tested were potentiated by AOAA, with respective MICs dropped from 8-fold to 32-fold (FIG. 13).
(§2) Minimum inhibitory concentration (MIC) determination was conducted as described in Example 7, above. To assess antibiotic potentiation by AOAA and PAG, MIC was determined for nine antibiotics (levofloxacin, meropenem, gentamicin, piperacillin, linezolid, cefepime, daptomycin, vancomycin, and chloramphemicol) and four bacterial strains (E. faecium (A2373), E. faecalis ([…]), S. pneumoniae (ATCC 49619), and P. aeruginosa (PAO1)) in the presence of antibiotic alone, 1 mM PAG, 0.1 mM AOAA, or 0.5 mM PAG+0.05 mM AOAA. The smaller the MIC value, the stronger the effect of antibiotic potentiation.

P. aeruginosa PAO1 = conditions: for MIC: Pseudomonas aeruginosa, PAO1, read-out: Minimum inhibitory concentration
Description: as §2

S. pneumoniae ATCC49619 = conditions: for MIC: Streptococcus pneumoniae, ATCC49619, read-out: Minimum inhibitory concentration
Description: as §2

E. faecalis ATCC29212 = conditions: for MIC: Enterococcus faecalis, ATCC29212, read-out: Minimum inhibitory concentration
Description: Bacterial cultures were prepared at initial inoculums of ˜5×10^5 CFU/ml, and aliquots of 190 μl per well were dispensed. Ten μl of the indicated antibiotic solutions were added to each well. The starting concentration for each antibiotic solution was 2×MIC, with serial ½ dilutions. Two sets of dilutions were prepared, and 0.1 mM AOAA was added to one set. The plates were kept at 37° C. and 85% humidity for 20 hours.
as §1, §2

[1] = in the presence of 0.5 mM PAG + 0.05 mM AOAA

Row | Compound | Minimum inhibitory concentration (E. faecium A2373; antibiotic alone) | Minimum inhibitory concentration (E. faecium A2373; in the presence of 0.1 mM AOAA) | Minimum inhibitory concentration (E. faecium A2373; [1]) | Minimum inhibitory concentration (E. faecium A2373; in the presence of 1 mM PAG) | Minimum inhibitory concentration (P. aeruginosa PAO1; antibiotic alone) | Minimum inhibitory concentration (P. aeruginosa PAO1; in the presence of 0.1 mM AOAA) | Minimum inhibitory concentration (P. aeruginosa PAO1; [1]) | Minimum inhibitory concentration (P. aeruginosa PAO1; in the presence of 1 mM PAG) | Minimum inhibitory concentration (S. pneumoniae ATCC49619; antibiotic alone) | Minimum inhibitory concentration (S. pneumoniae ATCC49619; in the presence of 0.1 mM AOAA) | Minimum inhibitory concentration (S. pneumoniae ATCC49619; [1]) | Minimum inhibitory concentration (S. pneumoniae ATCC49619; in the presence of 1 mM PAG) | Minimum inhibitory concentration (E. faecalis ATCC29212; antibiotic alone) | Minimum inhibitory concentration (E. faecalis ATCC29212; in the presence of 0.1 mM AOAA) | Minimum inhibitory concentration (E. faecalis ATCC29212; [1]) | Minimum inhibitory concentration (E. faecalis ATCC29212; in the presence of 1 mM PAG) | MIC (E. faecium A2373; antibiotic alone) | MIC (P. aeruginosa PAO1; antibiotic alone) | MIC (S. pneumoniae ATCC49619; antibiotic alone) | MIC (E. faecalis ATCC29212; antibiotic alone)
1 | CO/N=C(\C(=O)N[C@@H]1C(=O)N2C(C(=O)[O-])=C(C[N+]3(C)CCCC3)CS[C@H]12)c1csc(N)n1 [Cetepine, cefepime] | >64 µg/mL | >64 µg/mL | >64 µg/mL | >64 µg/mL | 2 µg/mL | 2 µg/mL | 1 µg/mL | 2 µg/mL | 0.125 µg/mL | 0.125 µg/mL | 0.125 µg/mL | 0.125 µg/mL | 32 µg/mL | 2 µg/mL | 8 µg/mL | 32 µg/mL |  |  |  | 
2 | CCN1CCN(C(=O)N[C@@H](C(=O)N[C@@H]2C(=O)N3[C@@H]2SC(C)(C)[C@@H]3C(=O)O)c2ccccc2)C(=O)C1=O [Piperacilin, piperacillin] | >64 µg/mL | 6 µg/mL | >64 µg/mL | >64 µg/mL | 4 µg/mL | 4 µg/mL | 4 µg/mL | 4 µg/mL | 0.5 µg/mL | 0.25 µg/mL | 0.5 µg/mL | 0.5 µg/mL | 2 µg/mL | 0.25 µg/mL | 1 µg/mL | 2 µg/mL |  |  |  | 
3 | CCCCCCCCCC(=O)N[C@@H](Cc1c[nH]c2ccccc12)C(=O)N[C@H](CC(N)=O)C(=O)N[C@@H](CC(=O)O)C(=O)N[C@@H]1C(=O)NCC(=O)N[C@@H](CCCN)C(=O)N[C@@H](CC(=O)O)C(=O)N[C@H](C)C(=O)N[C@@H](CC(=O)O)C(=O)NCC(=O)N[C@H](CO)C(=O)N[C@@H]([C@H](C)CC(=O)O)C(=O)N[C@@H](CC(=O)c2ccccc2N)C(=O)O[C@@H]1C [Daptomycin, daptomycin] |  | ≦1 μg/ml | 4 µg/mL | 2 µg/mL |  | >64 µg/mL | >64 µg/mL | >64 µg/mL |  | 0.063 µg/mL | 0.125 µg/mL | 0.125 µg/mL |  | ≦0.06 μg/ml | 1 µg/mL | 2 µg/mL | 4 µg/mL | > 64 µg/mL | 0.125 µg/mL | 2 µg/mL
4 | C[C@@H](O)[C@H]1C(=O)N2C(C(=O)O)=C(S[C@@H]3CN[C@H](C(=O)N(C)C)C3)[C@H](C)[C@H]12 [Meropenom, meropenem] | >64 µg/mL | 6 µg/mL | >64 µg/mL | >64 µg/mL | 1 µg/mL | 0.5 µg/mL | 0.5 µg/mL | 0.5 µg/mL | 0.125 µg/mL | 0.063 µg/mL | 0.063 µg/mL | 0.063 µg/mL | 4 µg/mL | 0.25 µg/mL | 1 µg/mL | 4 µg/mL |  |  |  | 
5 | CC(=O)NC[C@H]1CN(c2ccc(N3CCOCC3)c(F)c2)C(=O)O1 [Linezold, linezolid] |  | 2 µg/mL | 4 µg/mL | 4 µg/mL |  | >64 µg/mL | >64 µg/mL | >64 µg/mL |  | 0.5 µg/mL | 1 µg/mL | 2 µg/mL |  | 0.25 µg/mL | 2 µg/mL | 4 µg/mL | 4 µg/mL | > 64 µg/mL | 2 µg/mL | 4 µg/mL
